Reference: patent publication US20110262025A1, “Cosmetic Compositions and Methods for Maintaining and Improving Barrier Function of the Stratum Corneum and to Reduce the Visible Signs of Aging in Skin” (priority 2010, published 2011)
Where a SMILES comes first, the peptide text is derived from it. The star is where a group is joined. Cbz = O=C(OCc1ccccc1)*; CH2F = FC*

How the values were obtained:
[1] = test system: genes associated with SC lipid pathways, Dermaquant model keratinocytes and fibroblasts; test: Transcriptional profiling (Affymetrix U133A plus 2) in aged-equivalent skin culture; assay type: cell-based, human; conditions: 0.1% Hexamidine vs vehicle (water), 4-48 hours
Method: The Experimental design is set forth in Table I. Cultures were treated and harvested at indicated time points. Total RNA extraction, labeling and hybridization to AffymetrixTM U133A plus 2 gene chips were conducted. Data were subjected to normalization and statistical analysis.

Aquaporin 3 = test: Multiplex mRNA analysis (Panomics QuantiGene Plex) in keratinocytes; assay type: cell-based; conditions: neonatal human keratinocytes, 24 hours, vs no treatment
Method: A multiplex mRNA analysis was conducted. RNA was isolated from neonatal human keratinocytes. Neonatal human keratinocytes (Cascade Biologics # C-001-5C) were grown to 40% confluence in 6-well tissue culture plates then treated with compounds for 24 hours (3 replicates per treatment). The treatments included several concentrations of Hexamidine, Niacinamide, and /or Pentanediol. Additionally, 0.00194% (100 μM) caffeine and no-treatment controls were performed.
Several targets were measured with Panomics QuantiGene Plex Assay kit, a multi-analyte quantitative bead-based assay. The fluorescence intensity values, measured by a Bio-Rad Bio-Plex 100 instrument, for those samples yielding sufficient RNA are shown for Aquaporin 3, CDD44 antigen, and Claudin 1. Also measured were Glyceraldehyde-3-phosphate dehydrogenase, Collagen 1α2, Filaggrin, Serine palmitoyltransferase, Interleukin 1,3-hydroxy-3methylglutaryl-coenzyme A reductase, and Interferon gamma.

Epiderm 201 cultures = test: TEWL (evaporimeter) in epidermal cultures; assay type: cell-based, human; conditions: 1% Niacinamide, 24 hour treatment
Excerpt: Biomarker endpoints and certain clinical skin instrumental measurements, such as those used for skin barrier determinations, can be detected in skin equivalent cultures. As noted above, the stratum corneum barrier consists of flattened, terminally differentiated corneocytes surrounded by specialized lamellar lipids, which act to retard loss of water from the skin's surface. Water loss can be measured functionally by use of an evaporimeter instrument wherein the endpoint measured is TEWL, and is expressed in units of grams of water per skin per hour. In one validity test the present inventors took epidermal cultures from a commercial supplier (Epiderm 201 cultures from MatTek Corp., Ashland Mass.) grew them in cultures for four days whereby the number of differentiated cell layers and stratum corneum thickness was increased during this period. […] These findings indicate that in vitro epidermal constructs form a functional water barrier that can be enhanced by compounds such as Niacinamide.

cornification = conditions: after barrier disruption; cited from earlier work

Molecule: N=C(N)c1ccc(OCCCCCCOc2ccc(C(=N)N)cc2)cc1 [Hexamidine, 4,4′-(hexamethylenedioxy)dibenzenecarboximidamide]
- cellular cholesterol and fatty acid uptake mechanisms [1]: up-regulation
- expression of gene involved in LB formation (ABCAl2) [1]: Increased expression
- expression of gene involved in LB secretion (ABHD5) [1]: Increased expression
- gene encoding rate limiting enzyme in biosynthesis of cholesterol (HMGCR) [1]: up-regulation
- gene encoding rate limiting enzyme in biosynthesis of fatty acid (ACACA) [1]: up-regulation
- gene encoding rate limiting enzyme in biosynthesis of sphingolipid (SPTLC1/2) [1]: up-regulation
- mitochondrial cholesterol and fatty acid utilization pathways [1]: down-regulation
- transcriptional activators of genes involved in lipid metabolism [1]: up-regulation
- Aquaporin 3 expression (Aquaporin 3): upregulated

Molecule: NC(=O)c1cccnc1 [Niacinamide]
- TEWL levels (Epiderm 201 cultures): reduced further

Molecule: COC(=O)C[C@H](NC(=O)[C@H](C)NC(=O)[C@@H](NC(=O)OCc1ccccc1)C(C)C)C(=O)CF [Z-VAD-FMK] (Cbz-Val-Ala-Asp(OMe)-CH2F)
- cornification (cornification): delays

Molecule: Pentanediol
- Aquaporin 3 expression (Aquaporin 3): upregulated
